Patent US8097422B2, “Kir channel modulators” (Salk Institute for Biological Studies, priority 2007, dated 2012)
pIC50: −log10 of the molar value.

Molecular target: T1, Kir2 homotetramer channels (Mus musculus, UniProt P35561)
T1 construct: expressed in transfected cells; host or cells: HEK293
Test: patch-clamp determination of ion transport activity: inhibition of Kir2 channels (Kir2.1 expressed in HEK293 cells)
Type: cell-based
Details: as stated in the detailed description; read-out: IC50 for inhibition of Kir 2.1 channels
Description: It has been determined that inwardly rectifying potassium (Kir) channels are regulated directly by small molecule alcohol compounds. Three-dimensional crystallographic analysis of Kir channels has elucidated atomic details of binding pocket interactions with 2-methyl-2,4-pentanediol (MPD). MPD inhibits Kir2 channel activity and activates Kir3 channel activity. Amino acid substitutions in this hydrophobic pocket of the channel protein may alter the response to MPD. As determined by patch-clamp determinations of ion transport activity, a racemic mixture of 2-methyl-2,4-pentanediol, (±)MPD, activates Kir3 channels with an EC50 of >200 mM and inhibits Kir2 homotetramer channels with an IC50 of ˜200 mM. […] Bupivacaine inhibits Kir3.1/3.4 and Kir3.1/3.2 channels with an IC50 of ˜20-40 micromolar.
The effect of MPD on Kir2 channel activity was analyzed further. […] The fractional current remaining is plotted as a function of MPD concentration. The response for each cell was fit with the Hill equation. The average IC50 and Hill coefficients are shown (n=6).

T1 sequence (P35561 whole entry): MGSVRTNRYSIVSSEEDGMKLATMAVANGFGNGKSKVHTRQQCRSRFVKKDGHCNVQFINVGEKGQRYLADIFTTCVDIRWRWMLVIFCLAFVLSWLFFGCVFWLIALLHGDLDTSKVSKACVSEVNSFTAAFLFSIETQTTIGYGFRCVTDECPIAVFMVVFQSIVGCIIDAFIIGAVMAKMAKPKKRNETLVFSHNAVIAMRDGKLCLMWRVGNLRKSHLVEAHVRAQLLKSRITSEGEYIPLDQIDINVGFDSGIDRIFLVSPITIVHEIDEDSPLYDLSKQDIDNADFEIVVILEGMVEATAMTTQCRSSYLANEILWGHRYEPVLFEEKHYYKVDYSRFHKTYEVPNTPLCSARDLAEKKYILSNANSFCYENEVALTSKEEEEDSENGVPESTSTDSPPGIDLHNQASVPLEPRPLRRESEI

With `CC(O)CC(C)(C)O` (racemic) [MPD, 2-methyl-2,4-pentanediol] the pIC50 was ~1.00.
